Data reported in patent US20200347043A1, “MODULATORS OF THE INTEGRATED STRESS PATHWAY” (Calico Life Sciences LLC, priority 2019, published 2020).

tested on: HEK293T cells carrying the ATF4 luciferase reporter; experiment: ATF4-Luc assay (in vitro model of VWMD); assay type: cell-based, human; conditions: Homo sapiens, HEK-293T, 1 μg/mL tunicamycin, 7 hours, One Glo luminescence
Outline: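 Stable HEK293T line expressing firefly luciferase behind the human ATF4 5′-UTR, treated with 1 μg/mL tunicamycin plus compound for 7 hours. Luminescence read with One Glo; EC50 determined.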

First: O=C(NC12CCC(NC(=O)[C@H]3C[C@@H](OC(F)(F)F)C3)(CC1)[C@@H](O)C2)c1cc(=O)c2cc(Cl)ccc2o1 [Compound 146, 6-chloro-N-[(3S)-3-hydroxy-4-{[(1s,3R)-3-(trifluoromethoxy)cyclobutane-1-carbonyl]amino}bicyclo[2.2.2]octan-1-yl]-4-oxo-4H-1-benzopyran-2-carboxamide]
Second: O=C1CC(C(=O)NC23CCC(c4nnc([C@H]5C[C@@H](OC(F)(F)F)C5)o4)(CC2)OC3)Oc2ccc(Cl)cc21 (stereo partly shown) [Compound 163]
The EC50 of the first is higher: 0.25 to 0.5 µM for the first, 0.01 to 0.05 µM for the second. The second is the more potent here.

First: O=C1CC(C(=O)NC23CC(n4cnc(-c5ccc(F)c(F)c5)c4)(C2)C3)Oc2ccc(Cl)cc21 (stereo not shown) [Compound 148, 6-chloro-N-{3-[4-(3,4-difluorophenyl)-1H-imidazol-1-yl]bicyclo[1.1.1]pentan-1-yl}-4-oxo-3,4-dihydro-2H-1-benzopyran-2-carboxamide]
Second: O=C1C[C@@H](C(=O)NC23CC(n4cnc(-c5ccc(F)c(F)c5)c4)(C2)C3)Oc2ccc(Cl)cc21 [Compound 175, (2S)-6-chloro-N-{3-[4-(3,4-difluorophenyl)-1H-imidazol-1-yl]bicyclo[1.1.1]pentan-1-yl}-4-oxo-3,4-dihydro-2H-1-benzopyran-2-carboxamide]
The EC50 of the first is lower: 0.01 to 0.05 µM for the first, 0.05 to 0.25 µM for the second.

First: O=C1CC(C(=O)NC23CCC(c4nnc(C5CC(OC(F)(F)F)C5)o4)(C2)C3)Oc2ccc(Cl)cc21 (stereo not shown) [Compound 150, 6-chloro-4-oxo-N-(4-{5-[(1s,3s)-3-(trifluoromethoxy)cyclobutyl]-1,3,4-oxadiazol-2-yl}bicyclo[2.1.1]hexan-1-yl)-3,4-dihydro-2H-1-benzopyran-2-carboxamide]
Second: O=C1CC(C(=O)NC23CCC(c4nnc([C@H]5C[C@@H](OC(F)(F)F)C5)o4)(CC2)CC3)Oc2ccc(Cl)cc21 (stereo partly drawn) [Compound 167, 6-chloro-4-oxo-N-(4-{5-[cis-3-(trifluoromethoxy)cyclobutyl]-1,3,4-oxadiazol-2-yl}bicyclo[2.2.2]octan-1-yl)-3,4-dihydro-2H-1-benzopyran-2-carboxamide]
The EC50 of the first is higher: > 2 µM for the first, 0.01 to 0.05 µM for the second.

First: O=C1CC(C(=O)N[C@@H]2CC[C@@H](c3nnc([C@H]4C[C@@H](OC(F)(F)F)C4)o3)OC2)Oc2ccc(Cl)cc21 (stereo partly drawn) [Compound 152, 6-chloro-4-oxo-N-[(3R,6)-6-{5-[(1s,3R)-3-(trifluoromethoxy)cyclobutyl]-1,3,4-oxadiazol-2-yl}oxan-3-yl]-3,4-dihydro-2H-1-benzopyran-2-carboxamide]
Second: O=C1C[C@@H](C(=O)N[C@@H]2CC[C@@H](c3nnc([C@H]4C[C@@H](OC(F)(F)F)C4)o3)OC2)Oc2ccc(Cl)cc21 [Compound 177, (2S)-6-chloro-4-oxo-N-[(3R,6S)-6-{5-[cis-3-(trifluoromethoxy)cyclobutyl]-1,3,4-oxadiazol-2-yl}oxan-3-yl]-3,4-dihydro-2H-1-benzopyran-2-carboxamide]
The EC50 of the first is lower: 0.01 to 0.05 µM for the first, 0.05 to 0.25 µM for the second. The first is the more potent here.

O=C(COc1ccc(Cl)c(F)c1)N[C@@H]1CC[C@@H](c2nnc([C@H]3C[C@@H](OC(F)(F)F)C3)o2)OC1 [Compound 153, 2-(4-chloro-3-fluorophenoxy)-N-[(3R,6S)-6-{5-[(1s,3R)-3-(trifluoromethoxy)cyclobutyl]-1,3,4-oxadiazol-2-yl}oxan-3-yl]acetamide] and O=C(N[C@@H]1CC[C@@H](c2nnc([C@H]3C[C@@H](OC(F)(F)F)C3)o2)OC1)[C@H]1C[C@@H](O)c2cc(Cl)ccc2O1 [Compound 169, (2R,4R)-6-chloro-4-hydroxy-N-[(3R,6S)-6-{5-[cis-3-(trifluoromethoxy)cyclobutyl]-1,3,4-oxadiazol-2-yl}oxan-3-yl]-3,4-dihydro-2H-1-benzopyran-2-carboxamide] cannot be ordered by EC50: < 0.01 µM for the first, < 0.01 µM for the second.

First: O=C(NC12CC(C3NC(COc4ccc(Cl)c(F)c4)=NO3)(C1)C2)[C@H]1C[C@@H](O)c2cc(Cl)ccc2O1 (stereo partly drawn) [Compound 154, (2R,4R)-6-chloro-N-(3-{3-[(4-chloro-3-fluorophenoxy)methyl]-4,5-dihydro-1,2,4-oxadiazol-5-yl}bicyclo[1.1.1]pentan-1-yl)-4-hydroxy-3,4-dihydro-2H-1-benzopyran-2-carboxamide]
Second: O=C(NC12CC(c3nc(COc4ccc(Cl)c(F)c4)no3)(C1)C2)[C@H]1C[C@@H](O)c2cc(Cl)ccc2O1 [Compound 156, (2R,4R)-6-chloro-N-(3-{3-[(4-chloro-3-fluorophenoxy)methyl]-1,2,4-oxadiazol-5-yl}bicyclo[1.1.1]pentan-1-yl)-4-hydroxy-3,4-dihydro-2H-1-benzopyran-2-carboxamide]
The EC50 of the first is higher: 0.01 to 0.05 µM for the first, < 0.01 µM for the second. The second is the more potent here.

O=C1C[C@H](C(=O)NC23CC(c4nc(COc5ccc(Cl)c(F)c5)no4)(C2)C3)Oc2ccc(Cl)cc21 [Compound 155, (2R)-6-chloro-N-(3-{3-[(4-chloro-3-fluorophenoxy)methyl]-1,2,4-oxadiazol-5-yl}bicyclo[1.1.1]pentan-1-yl)-4-oxo-3,4-dihydro-2H-1-benzopyran-2-carboxamide] and O=C1C[C@H](C(=O)NC23CC(n4cnc(-c5ccc(F)c(F)c5)c4)(C2)C3)Oc2ccc(Cl)cc21 [Compound 176, (2R)-6-chloro-N-{3-[4-(3,4-difluorophenyl)-1H-imidazol-1-yl]bicyclo[1.1.1]pentan-1-yl}-4-oxo-3,4-dihydro-2H-1-benzopyran-2-carboxamide] fall in the same range of EC50: 0.01 to 0.05 µM for the first, 0.01 to 0.05 µM for the second.

O=C(CO[C@H]1C[C@@H](OC(F)(F)F)C1)NC12CCC(C(=O)NCc3ccc(C(F)(F)F)cn3)(CC1)CC2 [Compound 157] and O=C(CO[C@H]1C[C@@H](OC(F)(F)F)C1)N[C@H]1CC[C@H](C(=O)NCc2ccc(C(F)(F)F)cn2)CC1 [Compound 158, (1r,4r)-4-(2-{[(1s,3s)-3-(trifluoromethoxy)cyclobutyl]oxy}acetamido)-N-([5-(trifluoromethyl)pyridin-2-yl]methyl)cyclohexane-1-carboxamide] cannot be ordered by EC50: > 2 µM for the first, > 2 µM for the second.

First: O=C(CO[C@H]1C[C@@H](OC(F)(F)F)C1)NC12CC(NC(=O)[C@H]3CC(=O)c4cc(Cl)ccc4O3)(C1)C2 [Compound 162, (2R)-6-chloro-4-oxo-N-[3-(2-{[cis-3-(trifluoromethoxy)cyclobutyl]oxy}acetamido)bicyclo[1.1.1]pentan-1-yl]-3,4-dihydro-2H-1-benzopyran-2-carboxamide]
Second: O=C(CO[C@H]1C[C@@H](OC(F)(F)F)C1)NC12CC(NC(=O)[C@H]3C[C@@H](O)c4cc(Cl)ccc4O3)(C1)C2 [Compound 164, (2R,4R)-6-chloro-4-hydroxy-N-[3-(2-{[cis-3-(trifluoromethoxy)cyclobutyl]oxy}acetamido)bicyclo[1.1.1]pentan-1-yl]-3,4-dihydro-2H-1-benzopyran-2-carboxamide]
The EC50 of the first is higher: 0.01 to 0.05 µM for the first, < 0.01 µM for the second.

O=C(NC12CCC(c3nnc([C@H]4C[C@@H](OC(F)(F)F)C4)o3)(CC1)OC2)C1CC(O)c2cc(Cl)ccc2O1 (stereo partly shown) [Compound 165] and O=C(N[C@H]1CC[C@H](C(=O)NCc2ccc(C(F)(F)F)cn2)CC1)[C@@H]1C[C@@H](O)c2cc(Cl)ccc2O1 [Compound 172, (2S,4R)-6-chloro-4-hydroxy-N-[trans-4-({[5-(trifluoromethyl)pyridin-2-yl]methyl}carbamoyl)cyclohexyl]-3,4-dihydro-2H-1-benzopyran-2-carboxamide] fall in the same range of EC50: 0.01 to 0.05 µM for the first, 0.01 to 0.05 µM for the second.

Compared with O=C1C[C@H](C(=O)N[C@H]2CC[C@H](C(=O)N3CC(c4ccc(Cl)cc4)C3)CC2)Oc2ccc(Cl)cc21 [Compound 173, (2R)-6-chloro-N-{trans-4-[3-(4-chlorophenyl)azetidine-1-carbonyl]cyclohexyl}-4-oxo-3,4-dihydro-2H-1-benzopyran-2-carboxamide], O=C(N[C@H]1CC[C@H](C(=O)N2CC(c3ccc(Cl)cc3)C2)CC1)[C@H]1C[C@@H](O)c2cc(Cl)ccc2O1 [Compound 174, (2R,4R)-6-chloro-N-{trans-4-[3-(4-chlorophenyl)azetidine-1-carbonyl]cyclohexyl}-4-hydroxy-3,4-dihydro-2H-1-benzopyran-2-carboxamide] is lower in EC50: 0.01 to 0.05 µM for the first, < 0.01 µM for the second.

Compared with O=C(N[C@H]1CC[C@H](C(=O)N2CC(c3ccc(Cl)cc3)C2)CC1)[C@@H]1C[C@@H](O)c2cc(Cl)ccc2O1 [Compound 178], O=C(N[C@H]1CC[C@H](C(=O)N2CC(c3ccccc3)C2)CC1)[C@H]1C[C@@H](O)c2cc(Cl)ccc2O1 [Compound 182, (2R,4R)-6-chloro-4-hydroxy-N-[trans-4-(3-phenylazetidine-1-carbonyl)cyclohexyl]-3,4-dihydro-2H-1-benzopyran-2-carboxamide] is higher in EC50: 0.01 to 0.05 µM for the first, > 2 µM for the second.

First: O=C1C[C@H](C(=O)NC23CC(N4CCN(c5ccc(Cl)cc5)C4=O)(C2)C3)Oc2ccc(Cl)cc21 [Compound 179, (2R)-6-chloro-N-{3-[3-(4-chlorophenyl)-2-oxoimidazolidin-1-yl]bicyclo[1.1.1]pentan-1-yl}-4-oxo-3,4-dihydro-2H-1-benzopyran-2-carboxamide]
Second: O=C(NC12CC(N3CCN(c4ccc(Cl)cc4)C3=O)(C1)C2)[C@H]1C[C@@H](O)c2cc(Cl)ccc2O1 [Compound 183, (2R,4R)-6-chloro-N-{3-[3-(4-chlorophenyl)-2-oxoimidazolidin-1-yl]bicyclo[1.1.1]pentan-1-yl}-4-hydroxy-3,4-dihydro-2H-1-benzopyran-2-carboxamide]
The EC50 of the first is higher: 0.05 to 0.25 µM for the first, 0.01 to 0.05 µM for the second. The second is the more potent here.

First: O=C(NC12CC(n3cnc(-c4ccc(F)c(F)c4)c3)(C1)C2)[C@@H]1C[C@H](O)c2cc(Cl)ccc2O1 [Compound 180, (2S,4S)-6-chloro-N-{3-[4-(3,4-difluorophenyl)-1H-imidazol-1-yl]bicyclo[1.1.1]pentan-1-yl}-4-hydroxy-3,4-dihydro-2H-1-benzopyran-2-carboxamide]
Second: O=C(NC12CC(n3cnc(-c4ccc(F)c(F)c4)c3)(C1)C2)[C@H]1C[C@@H](O)c2cc(Cl)ccc2O1 [Compound 181, (2R,4R)-6-chloro-N-{3-[4-(3,4-difluorophenyl)-1H-imidazol-1-yl]bicyclo[1.1.1]pentan-1-yl}-4-hydroxy-3,4-dihydro-2H-1-benzopyran-2-carboxamide]
The EC50 of the first is higher: 0.05 to 0.25 µM for the first, < 0.01 µM for the second.
